Consider 52 molecules from PubChem BioAssay AID1996.

In brackets after ≈: the same amount, converted by molar mass.

For the data set the following is noted: buffer; pH 7.4; 200.0 µM.
By solubility (kinetic) is commonly meant solubility judged after dilution from a stock solution rather than from solid. Turning to `CCN1CCN(CCC(=O)Nc2cc(C)ccc2C)CC1`, the kinetic solubility is over 43.4 µg/mL.
Then `Cc1ccc2nc(-c3ccccc3)oc(=O)c2c1`, with 0.9 µg/mL (≈ 3.79 µM).
Molecule `CC1CCCCC1NC(=O)Cn1cc([N+](=O)[O-])ccc1=O` (configuration not stated) yielded a solubility (kinetic) of 29.1 µg/mL (≈ 99.2 µM).
Then `CCOC(=O)C1=C(N)OC2=C(C(=O)CCC2)C12C(=O)N(C)c1ccccc12` (configuration not stated), with 29.1 µg/mL (≈ 79 µM); and `CNC(=O)COC(=O)/C=C/c1ccco1`, with over 31.4 µg/mL.
Then `CCOc1cccc(/C=C/c2ccc3cccc(O)c3n2)c1OC`, with under 0.7 µg/mL; and `COc1ccc(NC(=O)CSc2ccccn2)c([N+](=O)[O-])c1`, with 7.3 µg/mL (≈ 22.9 µM); and `CCOc1cc(S(=O)(=O)NCc2cccnc2)c(C)cc1C`, with over 48.1 µg/mL.
Then `Brc1c(-c2ccccc2)nc2n1Cc1ccccc1-2`, with 0.6 µg/mL (≈ 1.93 µM); and `CCN1CCCC1CNC(=O)c1cc2ccc(OC)cc2[nH]1` (configuration not stated), with over 45.2 µg/mL.
In the case of `Cc1ccc(NC(=O)N2CCCc3ccccc32)cc1C`, the solubility (kinetic) was determined as 29 µg/mL (≈ 103 µM).
`Cc1cccc(OCC(=O)NCCNC(=O)c2cccnc2)c1`: the solubility (kinetic) is over 47 µg/mL.
Then `COc1ccccc1CCC(=O)NNC(=O)c1ccncc1`, with over 44.9 µg/mL.
In the case of `Cc1ccc(OCCCN2C(=O)C(=O)c3cc(C)ccc32)cc1`, the kinetic solubility is under 0.7 µg/mL.
`C=CCn1c(O)c(C(C)=NCCCn2ccnc2)c(=O)[nH]c1=O` returned a kinetic solubility of over 47.6 µg/mL.
As for `Cl.O=C(/C=C/c1cccc(F)c1)NCCCn1ccnc1`, the solubility (kinetic) was over 46.5 µg/mL.
Then `COc1ccc(OCCC(=O)Nc2ccc(S(N)(=O)=O)cc2)cc1`, with 48.1 µg/mL (≈ 137 µM).
Then `Cn1c(CNc2ccc(Br)cc2)nc2ccccc21`, with 13 µg/mL (≈ 41.1 µM); and `O=C(COC(=O)c1cc(S(=O)(=O)N2CCCC2)ccc1O)Nc1ccccc1Br`, with 9.6 µg/mL (≈ 19.9 µM).
For `O=C1Nc2ccccc2CCc2ccccc21`, the solubility (kinetic) was over 33.5 µg/mL.
`COc1ccccc1N(CCOc1ccccc1)S(=O)(=O)c1ccccc1` had a kinetic solubility of 3.9 µg/mL (≈ 10.2 µM).
`O=C(Nc1ccc(N2CCOCC2)nc1)c1ccccc1Cl` displayed a solubility (kinetic) of 42 µg/mL (≈ 132 µM).
On to `CC1CCCCC1NC(=O)COC(=O)/C=C/c1ccco1` (configuration not stated), for which the solubility (kinetic) was 22.6 µg/mL (≈ 77.6 µM).
`COC(=O)c1cccc(NC(=O)CC2C(=O)NCCN2C(=O)Nc2cc(C)cc(C)c2)c1` (configuration not stated) registered a kinetic solubility of 13.1 µg/mL (≈ 29.9 µM).
For the molecule `Cn1c(=O)c2[nH]c(C3CCCC3)nc2n(C)c1=O`, the kinetic solubility is over 37.2 µg/mL.
For the molecule `CN1C(CC(=O)Nc2ccc(Cl)cc2Cl)c2ccccc2CC1(C)C` (configuration not stated), the kinetic solubility turned out to be 10 µg/mL (≈ 26.5 µM).
The molecule `O=C(COC(=O)c1ccc(S(=O)(=O)N2CCCCC2)cc1)NCc1ccccc1` registered a kinetic solubility of 3.6 µg/mL (≈ 8.64 µM).
Regarding `COc1cc(C(=O)NC(c2ccccc2)c2ccccc2)cc(OC)c1OC`, the kinetic solubility was under 0.8 µg/mL.
Then `O=C(CN1CCCC1)N1CCN(c2ccccc2)CC1`, with over 41 µg/mL; and `COc1ccc(C(=O)NCCNc2ccc([N+](=O)[O-])cc2)cc1OC`, with 1.7 µg/mL (≈ 4.92 µM).
Then `O=C(N/N=C/c1ccccc1)C(O)c1ccccc1` (configuration not stated), with over 38.1 µg/mL; and `Cl.N=C(N)N1CCc2ccccc21`, with 28.1 µg/mL.
With `CCOC(=O)C1CCCN(Cc2nc(C3CC3)no2)C1` (configuration not stated), the solubility (kinetic) amounted to 36.5 µg/mL (≈ 131 µM).
Then `O=[N+]([O-])c1ccccc1S(=O)(=O)Nc1cccc(S(=O)(=O)N2CCCC2)c1`, with over 61.7 µg/mL.
`COc1ccccc1NC(=O)CC1SC(=N)N(c2ccccc2)C1=O` (configuration not stated) showed a solubility (kinetic) of 5.3 µg/mL (≈ 14.9 µM).
For `CSc1ccccc1NC(=O)c1ccccn1`, the solubility (kinetic) worked out at 29.8 µg/mL (≈ 122 µM).
Then `Cc1cccc[n+]1CC(=O)c1ccccc1.[Br-]`, with over 43.8 µg/mL; and `CN1OC[C@@H]2COc3ccc4ccccc4c3[C@@H]21`, with 33.1 µg/mL (≈ 137 µM); and `CN1C2CCC1CC(NC(=O)CSc1ccc(Cl)cc1)C2` (configuration not stated), with over 48.7 µg/mL.
Then `O=c1[nH]c2ccccc2c(O)c1-[n+]1ccccc1.[Cl-]`, with 40.5 µg/mL.
Then `Cc1ccc2c(c1)C1C[N+](C)(CC(=O)Nc3ccccc3Cl)CCC1N2C(=O)c1ccccc1Cl.[Cl-]` (configuration not stated), with over 81.7 µg/mL.
Molecule `Cc1ccccc1CSCCC(=O)NCCc1ccccc1` came in with a kinetic solubility of 9.8 µg/mL (≈ 31.3 µM).
In the case of `N#Cc1c(/N=C/c2ccc(-c3ccccc3C(=O)O)o2)sc2c1CCCC2`, the kinetic solubility is over 56.5 µg/mL.
Then `O=C1CCCN1c1ccc(N2CCCC2=O)cc1`, with over 36.6 µg/mL.
Then `COc1ccc(C(=O)OCC(=O)NCCN2C(=O)CSC2=O)cc1[N+](=O)[O-]`, with over 59.6 µg/mL.
In turn, `COC(=O)C(C(=O)OC)c1ncc(C(F)(F)F)cc1Cl` had a solubility (kinetic) of 41.1 µg/mL (≈ 132 µM).
Then `NC(=Nc1ccccc1)Nc1ccccc1`, with 29.5 µg/mL (≈ 140 µM); and `Nc1cccc(/C=C/C(=O)O)c1`, with over 24.5 µg/mL.
Turning to `CCNC(=O)COC(=O)c1[nH]c(C)c(C(=O)OC)c1C`, the kinetic solubility is over 42.3 µg/mL.
On to `COCCNC(=S)N(CCc1c(C)[nH]c2ccc(C)cc12)Cc1ccco1`, for which the kinetic solubility is 15.2 µg/mL (≈ 39.4 µM).
Then `C=CCOC(=O)C1=C(C)OC(N)=C(C#N)C1c1ccco1` (configuration not stated), with 9.6 µg/mL (≈ 33.5 µM); and `COc1ccccc1CNC(=O)c1cccnc1`, with over 36.3 µg/mL.
